{"source": "patent US6040434A", "about": "“Aldehyde oxidase inhibitors for treatment of aids” (priority 1997, dated 2000)", "key": {"bone marrow": {"tested_on": "bone marrow", "details": "cited from earlier work"}, "[1]": {"tested_on": "microsomal cytochrome P450 isozymes and microsomal NADPH-cytochrome P450 reductase", "details": "in words; Eagling (1994); cited from earlier work"}, "[2]": {"details": "in words; Veal et al., 1995; cited from earlier work"}, "retroviral replication": {"tested_on": "retroviral replication", "details": "cited from earlier work"}, "[3]": {"target": "T1, S9 fraction of human liver (Homo sapiens, UniProt Q06278)", "T1 construct": "Human liver samples stored at -70° C. were partially thawed, homogenized; from tissue; host or cells: human liver, S9 fraction (9000 g supernatant)", "T1 sequence (Q06278 1-1338)": "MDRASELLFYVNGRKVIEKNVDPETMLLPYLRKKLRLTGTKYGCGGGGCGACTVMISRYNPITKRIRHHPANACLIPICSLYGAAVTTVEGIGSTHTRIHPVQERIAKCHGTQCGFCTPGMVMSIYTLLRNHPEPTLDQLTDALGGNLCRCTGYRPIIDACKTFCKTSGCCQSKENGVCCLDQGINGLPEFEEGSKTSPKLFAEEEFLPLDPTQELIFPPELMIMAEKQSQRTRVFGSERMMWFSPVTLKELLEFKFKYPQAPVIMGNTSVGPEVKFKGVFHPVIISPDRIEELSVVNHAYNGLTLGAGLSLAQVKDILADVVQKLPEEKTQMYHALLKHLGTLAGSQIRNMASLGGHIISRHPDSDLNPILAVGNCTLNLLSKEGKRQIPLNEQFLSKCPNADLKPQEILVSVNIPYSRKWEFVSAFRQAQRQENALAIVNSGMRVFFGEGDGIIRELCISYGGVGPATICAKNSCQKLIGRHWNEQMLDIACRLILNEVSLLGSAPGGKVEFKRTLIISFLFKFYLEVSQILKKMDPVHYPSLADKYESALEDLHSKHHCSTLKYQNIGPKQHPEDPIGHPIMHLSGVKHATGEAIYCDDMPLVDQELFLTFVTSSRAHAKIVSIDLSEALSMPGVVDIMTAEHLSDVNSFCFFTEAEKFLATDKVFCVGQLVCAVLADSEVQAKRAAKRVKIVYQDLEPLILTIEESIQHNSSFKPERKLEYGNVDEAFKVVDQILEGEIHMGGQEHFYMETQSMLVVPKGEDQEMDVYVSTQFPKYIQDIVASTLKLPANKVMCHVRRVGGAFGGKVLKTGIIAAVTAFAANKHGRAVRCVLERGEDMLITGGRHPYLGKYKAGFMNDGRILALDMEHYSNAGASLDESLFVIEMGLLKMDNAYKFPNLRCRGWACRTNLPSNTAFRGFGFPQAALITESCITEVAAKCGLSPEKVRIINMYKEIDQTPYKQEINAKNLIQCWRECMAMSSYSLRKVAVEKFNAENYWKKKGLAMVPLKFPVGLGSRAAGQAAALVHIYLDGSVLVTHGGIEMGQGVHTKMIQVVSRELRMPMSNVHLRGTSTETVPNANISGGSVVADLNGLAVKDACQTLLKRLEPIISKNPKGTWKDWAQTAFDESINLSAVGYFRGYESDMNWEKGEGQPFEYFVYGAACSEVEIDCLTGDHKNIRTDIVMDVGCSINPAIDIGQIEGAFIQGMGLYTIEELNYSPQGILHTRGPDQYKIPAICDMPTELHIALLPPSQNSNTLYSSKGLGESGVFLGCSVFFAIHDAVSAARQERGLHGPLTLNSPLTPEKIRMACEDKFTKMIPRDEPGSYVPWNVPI", "test": "AMT formation from AZT by human liver S9 fraction / human liver samples", "assay_type": "in vitro ADME", "details": "human liver samples; conversion of AZT to AMT", "source_text": "(§1) Hamster livers were processed by the same method.\n(§2) This reduced the experimental variability and simplified the procedure. […] The method was as follows.\n(§3) AMT formation by a human liver S9 fraction was compared with that by a hamster liver S9 fraction, as the hamster has the highest documented level of liver aldehyde oxidase activity (Kitamura, 1984; by Sugihara, 1996)."}, "[4]": {"tested_on": "S9 fraction of human liver", "test": "AMT formation from AZT by human liver S9 fraction / human liver samples", "assay_type": "in vitro ADME", "source_text": "as §1, §2, §3"}}, "data": [{"compound": "Cc1cn([C@H]2C[C@H](N=[N+]=[N-])[C@@H](CO)O2)c(=O)[nH]c1=O", "note": "[AZT, 3'-azido-3'-deoxythymidine]", "values": [{"measurement": "patients treated with AZT suffering bone marrow toxicity", "setting": "bone marrow; depending on dosage and disease stage", "result": "up to 51%"}, {"measurement": "side-effect of bone marrow toxicity", "setting": "bone marrow; in words", "result": "bone marrow toxicity, resulting in granulocytopenia and anemia"}, {"measurement": "conversion of AZT to AMT by human liver microsomes", "setting": "[1]", "result": "the conversion was mediated by both microsomal cytochrome P450 isozymes and microsomal NADPH-cytochrome P450 reductase"}, {"measurement": "pathways of metabolism and elimination", "setting": "[2]", "result": "The predominant pathway of metabolism is by glucuronide formation and renal excretion"}, {"measurement": "inhibition of retroviral replication", "setting": "retroviral replication", "result": "potent inhibitor of retroviral replication"}, {"measurement": "share of AMT formation due to cytosolic aldehyde oxidase (2-OHP-dependent)", "setting": "[3]", "result": "≥ 90", "unit": "%"}, {"measurement": "share of AMT formation due to microsomal enzyme activity", "setting": "[4]", "result": "less than 10%"}]}]}
